In paper PMC12238850, “Molecular determinants for recognition of serotonylated chromatin” (Nucleic Acids Research, 2025) one finds koff data, which are given here for 2 molecules.

Like-named read-outs stand apart in the source and are kept apart here.

This test addresses T1, Taf3-PHD P881E–W894F (Mus musculus, UniProt Q5HZG4, P881E/W894F).
T1 construct: Mus musculus Taf3-PHD domain (residues 857–924); GST (N, cleaved yes); made in house; host or cells: E. coli BL21(DE3), M9 minimal medium (13C/15N)
T1 sequence (Q5HZG4 857-924 P881E/W894F): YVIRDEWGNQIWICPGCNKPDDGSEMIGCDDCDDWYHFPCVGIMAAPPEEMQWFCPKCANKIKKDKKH
Kind of test: NMR titration line shape analysis (TITAN), double mutant Taf3-PHD. Format: binding. The protocol: The ^13C- and ^15N-labelled Taf3-PHD NMR samples were purified as described above, with minor differences. A single colony of freshly transformed BL21(DE3) E. coli was grown in a synthetic M9 minimal medium (6.0 g/l Na2HPO4·2H2O, 3.0 g/l KH2PO4, 0.5 g/l NaCl, 25 mg/l MgSO4, 290 μg/l CaCl2, 1 μg/l FeSO4·7H2O, 270 μg/l ZnCl2, and 5 mg/l thiamine) containing 2.0 g/l ^13C-glucose as the only carbon source and 0.5 g/l ^15NH4Cl as the sole nitrogen source. Protein expression, lysis, and loading to Glutathione Sepharose™ column were performed as described above. The GST-tag was removed through on-column thrombin digestion by loading excess thrombin (SERVA) in wash buffer followed by overnight digestion at 4°C. The cleaved PHD moiety with a […] N-terminal extension (Gly–Ser–His–Met–Ala–Met–Ala) remaining from the thrombin cleavage site was collected from the flow-through and further purified in a Mono Q™ 10/100 GL as before and subsequently loaded to a Superdex-75 HiLoad 16/600 gel filtration column in NMR buffer (20 mM KPi, pH 7.0, 150 mM KCl, 10 μM ZnCl2) (Supplementary Fig. S1).
All data were recorded at 298 K on a Bruker Avance III HD 900 MHz spectrometer equipped with a cryoprobe, unless noted otherwise. Sample for assignment verification contained 0.3 mM ^13C- and ^15N-labelled PHD finger of Taf3 (residues 857–924) in NMR buffer (20 mM KPi, pH 7.0, 150 mM KCl, 10 μM ZnCl2, 0.01% NaN3, 10% D2O) in a 5-mm NMR tube. Samples for peptide interaction studies contained 0.19 mM ^13C- and ^15N-labelled PHD in NMR buffer in 3-mm NMR tubes. Lyophilized peptides were dissolved in NMR buffer including 1 mM sodium 3-(trimethylsilyl)tetradeuteriopropanionate (TSP) into 20 mM stock solutions. Upon dilution to 1 mM, all peptide solutions were at pH 7.0 in NMR buffer. Peptide concentrations were determined by comparing the integral of the Thr methyl signal (from T3, T6, and T11, total nine protons) to that of TSP using a quantitative 1D experiment (recycle delay 60 s) recorded at a Bruker Avance III 600 MHz spectrometer. Saturated complexes with H3K4me1/H3K4me2/H3K4me3 peptides with and without H3Q5ser were made by adding peptide to a 0.7 mM final concentration (3.6 equiv.). […] Additional samples were prepared using 30%, 50%, 80%, and 160% equiv. of peptide. All spectra were recorded and processed using Bruker Topspin and analysed using NMR-FAM Sparky and Poky.
For the H3K4me2 complexes, the resonance of G879 was excluded due to overlap and that of K875 was included. Spectra were processed using NMRPipe using exponential line broadening of 10/15 Hz in the direct/indirect dimension of the free induction decay before Fourier transform. Data were fit against a 1:1 binding model that also optimizes the ligand concentration to compensate for concentration errors. […]

Usually koff stands for a measure of how fast the partners let go of each other. For `C[C@H](N)C(=O)N[C@@H](CCCNC(=N)N)C(=O)N[C@H](C(=O)N[C@@H](CCCC[N+](C)(C)C)C(=O)N[C@@H](CCC(N)=O)C(=O)N[C@H](C(=O)N[C@@H](C)C(=O)N[C@@H](CCCNC(=N)N)C(=O)N[C@@H](CCCCN)C(=O)N[C@@H](CO)C(=O)N[C@H](C(=O)NCC(N)=O)[C@@H](C)O)[C@@H](C)O)[C@@H](C)O` [H3K4me3], the off-rate (koff) reads like this: (NMR line shape fit (TITAN), P881E–W894F mutant, average ± standard error from bootstrap, read-out: koff) 29.6 ± 0.9 s⁻¹; (NMR line shape fit (TITAN), P881E–W894F mutant, read-out: koff 95% confidence limits) 22 to 40 s⁻¹.
For the molecule `C[C@H](N)C(=O)N[C@@H](CCCNC(=N)N)C(=O)N[C@H](C(=O)N[C@@H](CCCC[N+](C)(C)C)C(=O)N[C@@H](CCC(=O)NCCc1c[nH]c2ccc(O)cc12)C(=O)N[C@H](C(=O)N[C@@H](C)C(=O)N[C@@H](CCCNC(=N)N)C(=O)N[C@@H](CCCCN)C(=O)N[C@@H](CO)C(=O)N[C@H](C(=O)NCC(N)=O)[C@@H](C)O)[C@@H](C)O)[C@@H](C)O` [H3K4me3Q5ser], the koff stood at 24.2 ± 0.9 s⁻¹. In addition, for the setting “read-out: koff 95% confidence limits”, the dissociation rate constant (koff) is 18 to 33 s⁻¹.
